Measured values: US7419954B2, “Staphylococcus peptides for bacterial interference” (priority 1998, dated 2008)
pEC50, pIC50: −log10 of the molar value. Where a SMILES comes first, the peptide text is derived from it. Bridges are numbered along the chain shown (N, C = ends).

Experiments:
[1] = system: strain RN7206 carrying the agrCA-II agrp3-blaZ reporter fusion; experiment: Determination of AIP-II half-life: incubation in PBS or rabbit serum, then dose-response activation of β-lactamase induction; type: cell-based, S. aureus; conditions: normal rabbit serum
Description: (§1) Determination of AIP-II half-life. To approximate the active lifetime of AIP, a synthetic version of AIP-IL (Lyon et al. (2002) Biochemistry 41, 10095-104) was incubated in PBS or rabbit serum at 37° C. for 4 hours. The sample was diluted and a dose-response assay for activation of β-lactamase induction of strain RN7206 carrying the agrCA-II agrp3-blaZ reporter fusion was performed as previously described (Lyon et al. (2002) supra; Wright III et al. (2004) Proc. Natl. Acad. Sci., USA).

[2] = as above; type: cell-based, S. aureus; conditions: rabbit, rabbit serum; from EC50 shift PBS vs serum; given as in vivo
Description: as §1

[3] = system: agr-I bacteria (RN6734) carrying agrp3-lux or blaZp-lux; experiment: Murine subcutaneous abscess model with in vivo bioluminescence imaging; design: species or system SKH-1 mice; conditions: mice, single dose 10 μg co-injected with agr-I bacteria
Description: Murine subcutaneous abscess model. Groups (n=3 per variable examined) of hairless, euthymic SKH-1 (ISL) mice (Charles River) were used in the murine subcutaneous abscess model (Bunce et al. (1992) Infect. Immun. 60, 2636-40). In this model, staphylococci are injected subcutaneously with cytodex beads, and an abscess develops at the site of injection 2-3 days later, then sloughs and drains. The organisms grow rapidly initially, after which the population levels out and remains constant thereafter. Polymorphonuclear leuykocytes (PMNs) are attracted to the developing lesion by bacterial products and by pro-inflammatory cytokines, reaching maximum numbers by about 6 hours.
Bacteria were thawed, diluted to appropriate cell density, mixed with sterile cytodex beads (Sigma) and injected subcutaneously in a volume of 0.1 ml in the flank region. […] Mice were fed a standard diet ad libitum and monitored daily for signs of distress. Colony forming units (CFU) per abscess were determined by plating serial dilutions of excised lesions homogenized in PBS plus 0.5% Triton X-100.
Measurement of bioluminescence in vivo. […] For the graphs, the signal collected on a portion of the CCD array corresponding to the area of injected bacteria was determined in photons/sec/cm^2/sr, referred to as relative light units (RLU), and plotted vs. time after initiation of infection.

[4] = molecular target: AgrC receptor of group II S. aureus (Staphylococcus aureus); experiment: cell-based or functional assay
[5] = molecular target: AgrC receptor of group III S. aureus (Staphylococcus aureus); experiment: cell-based or functional assay
[6] = molecular target: AgrC receptor of group I S. aureus (Staphylococcus aureus); experiment: cell-based or functional assay
[7] = molecular target: agr response in group I (RN6390B) S. aureus; experiment: agr P3-blaZ β-lactamase reporter assay, inhibition of the agr response; type: cell-based; conditions: for IC50 Inhibition, S. aureus Group I / pIC50: group I (RN6390B), midexponential phase, 80 minutes
Description: (§2) The synthetic AgrD peptides shown in Table 1 include the following: Agr D1 Thiolactone. […] (SEQ ID NO: 9): Agr D2 Thiolactone, […] (SEQ lID NO: 1): Agr D2 Linear Thioester, […] (SEQ ID NO: 1): Agr D2 Linear Free Acid […] (SEQ ID NO: 1); Agr D2 Lactone, […] (SEQ ID NO: 1); and Agr D2 Lactam, GVNAXSSLF (SEQ ID NO: 1).
(§3) Biological activity of synthetic AgrD peptides. Biological assays were performed using groups I (RN6390B), II (SA502A) and III (RN8463) S. aureus strains (Ji et al. (1997) supra), each containing an agr P3-blaZ fusion plasmid (Novick et al. (1995) supra). Cells were grown in CYGP medium at 37° C. to either early exponential phase for agr activation studies, or midexponential phase for agr inhibition studies. To the cultured cells were then added one of the following: buffer solution (negative control), the appropriate cell supernatant containing the natural AgrD peptide as prepared as in (Ji, G., et al., 1995) (positive control) or the synthetic peptide solution in 20 mM tris.HCl buffer at pH 6.0.

[8] = molecular target: agr response in group III (RN8463) S. aureus; experiment: as above; type: cell-based
Description: as §2, §3

[9] = molecular target: agr response in group II (SA502A) S. aureus; experiment: as above; type: cell-based; conditions: for inhibition of self (own group): own S. aureus group (group II)
Description: as §2, §3

[10] = molecular target: agr response in group I (RN6390B) S. aureus; experiment: agr P3-blaZ β-lactamase reporter assay, activation of the agr response; type: cell-based; conditions: early exponential phase, 55 minutes
Description: as §2, §3

[11] = molecular target: agr response in group III (RN8463) S. aureus; experiment: as above; type: cell-based; conditions: early exponential phase, 55 minutes
Description: as §2, §3

[12] = molecular target: agr response in group II (SA502A) S. aureus; experiment: as above; type: cell-based; conditions: early exponential phase, 55 minutes
Description: as §2, §3

[13] = system: agr response in groups I, II and III S. aureus strains; experiment: agr P3-blaZ β-lactamase reporter assay, activation/inhibition in the three S. aureus strains; type: cell-based
Description: as §2, §3

[14] = group III (RN8463), midexponential phase, 80 minutes
[15] = group II (SA502A), midexponential phase, 80 minutes

Compound	IC50 Inhibition (nM), agr P3-blaZ beta-lactamase reporter [6] [nM]	IC50 Inhibition, S. aureus Group I [7]	IC50 Inhibition, S. aureus Group II [9, 15]	ED50 Activation, S. aureus Group I [10]	ED50 Activation, S. aureus Group III [11]	ED50 Activation, S. aureus Group II [12]	further results
CC(C)C[C@@H]1NC(=O)[C@H](CO)NC(=O)[C@H](CO)NC(=O)[C@@H](NC(=O)[C@H](C)NC(=O)[C@H](CC(N)=O)NC(=O)[C@@H](NC(=O)CN)C(C)C)CSC(=O)[C@H](Cc2ccccc2)NC1=O [Agr D2 Thiololactone, GVNACSSLF (SEQ lID NO: 1)] (H-GVNACSSLF; thioester 5-C)							in vitro lifetime [1]: ~4 h; half-life [2]: < 4 h; effective biological lifetime of the peptide in vivo [3]: about 3 hours
Agr D1 Thiolactone (peptide)							IC50 Inhibition (nM), agr P3-blaZ beta-lactamase reporter [4]: 2.9 nM; IC50 Inhibition (nM), agr P3-blaZ beta-lactamase reporter [5]: 3.2 nM; ED50 Activation (nM), agr P3-blaZ beta-lactamase reporter [6]: 10.2 nM
Agr D2 Lactam (peptide)	0.21						
Agr D2 Lactone (peptide)	7.9						
Agr D2 Thiolactone (peptide)	3.4						ED50 Activation (nM), agr P3-blaZ beta-lactamase reporter [4]: 3.6 nM; IC50 Inhibition (nM), agr P3-blaZ beta-lactamase reporter [5]: 3.1 nM
GVNAASSLF [Agr D2 Linear Thioester, GVNAASSLF (SEQ ID NO: 1)]		No Inhibition	No Inhibition	No Activation	No Activation	No Activation	IC50 Inhibition, S. aureus Group III [8, 14]: No Inhibition; activation/inhibition of the agr response ([13]; added to cultured cells at μM concentrations): unable to either activate or inhibit
GVNASSSLF (SEQ ID NO: 1) [Agr D2 Lactone]			No Inhibition	No Activation	No Activation	No Activation	inhibition of the agr response in group I S. aureus strains [7]: able to inhibit; pIC50 [7]: 8.10; inhibition of the agr response in group III S. aureus strains [8]: able to inhibit; inhibition of self (own group) [9]: do not inhibit self; activation of the agr response in any of the three S. aureus strains [13]: unable to activate
GVNASSSLF [Agr D2 Linear Free Acid, GVNASSSLF (SEQ ID NO: 1)]		No Inhibition	No Inhibition	No Activation	No Activation	No Activation	IC50 Inhibition, S. aureus Group III [8, 14]: No Inhibition
GVNAXSSLF (SEQ ID NO: 1) [Agr D2 Lactam]			No Inhibition	No Activation	No Activation	No Activation	inhibition of the agr response in group I S. aureus strains [7]: able to inhibit; pIC50 [7]: 9.68; inhibition of the agr response in group III S. aureus strains [8]: able to inhibit; inhibition of self (own group) [9]: do not inhibit self; activation of the agr response in any of the three S. aureus strains [13]: unable to activate
YSTCDFIM [Agr D1 Thiolactone, YSTCDFIM (SEQ ID NO: 9)]		No Inhibition			No Activation	No Activation	pIC50 [8, 14]: 8.49; pIC50 [9, 15]: 8.54; pEC50 ([10]; read-out: ED50 Activation, S. aureus Group I): 7.99
